One block for each compound: values may come before it.
Columns and labels:
[1] = tested on: male, Sprague-Dawley rats; experiment: Oral Delivery of Insulin in Rats: whole blood glucose after oral gavage of insulin with delivery agent compound; assay type: in vivo, rat; conditions: sodium salt of delivery agent
Method: Human recombinant insulin (ICN Biomedicals, Aurora, Ohio) was dissolved in deionized water (ph˜6.5) to obtain stock insulin solutions having a concentration of 15 mg/ml. Sodium salts of the delivery agent compounds shown below in table 1 dissolved in deionized water to obtain a 200 mg/ml delivery agent solution. The free acid form of delivery agent as converted to the sodium salt by adding one equivalent of sodium hydroxide. Solutions were vortexted, sonicated, and heated. If necessary, additional sodium hydroxide was added in μl quantities to achieve uniform solubility in the delivery agent solutions. Solutions were adjusted to a pit of 3.5-8.5 by the addition of either hydrochloric acid or sodium hydroxide, as appropriate. The insulin stock solution was then added to the delivery agent solutions to obtain an administration solution ultimately having an insulin concentration of 0.5 mg/ml. After solubilization and drug addition, administration solutions were brought to a final volume by the addition of deionized water.
Insulin was administered to male, Sprague-Dawley rats either alone or in combination with delivery agent by oral gavage (PO). Rats, weighing 0.22 to 0.27 kg, were fasted for 18-24 hours prior to dosing. A Rusch 8 French catheter was cut to 11 cm in length and adapted to fit a 1 ml syringe. The syringe was filled with dosing solution and the catheter was inserted into the at mouth and fed down the esophagus (10.0 cm). The dosing solution was delivered by pressing the syringe plunger while holding the rat in an upright position. The doses of delivery agent and insulin were 200 mg/kg and […], respectively unless noted otherwise in Table 1. The dose volume was […].
Immediate to each blood sampling point, rats were exposed briefly (˜10 seconds) to carbon dioxide until prostrate. A 77-nun capillary tube was inserted into the retroorbital sinus. Typically, blood samples were collected prior to dosing (time=0) and at 15, 30, 45, and 60 minutes after dosing.
To determine the pharmacodynamic response, a hand-held glucometer (OneTouch Ultra, LifeScan—Johnson & Johnson, New Brunswick, N.J.) was used to measure whole blood glucose after administration of insulin or insulin and delivery agent. After discarding the first drop of blood, a small sample (˜5-10 μls) was touched to the glucometer test strip (OneTouch Ultra, LifeScan) and a blood glucose reading was generated by the meter. Samples at the times indicated below in Table 1 after dosing.

[2] = insulin 0.5 mg/kg, delivery agent 100 mg/kg, time period 30 minutes
[3] = insulin 0.5 mg/kg, delivery agent 100 mg/kg, time period 45 minutes
[4] = insulin 0.5 mg/kg, delivery agent 200 mg/kg, time period 30 minutes

SMILES: Cc1ccc(C)c(OCCCC(=O)O)c1 [Compound 1, 4-(2,5-Dimethylphenoxy)butyric acid]
Average Glucose Reduction (5 rats/experiment) ([1]; insulin 0.05 mg/kg, delivery agent 200 mg/kg, time period 15 minutes): −16.1%
Average Glucose Reduction (5 rats/experiment) ([1]; insulin 0.10 mg/kg, delivery agent 200 mg/kg, time period 30 minutes): −13.0%
Average Glucose Reduction (5 rats/experiment) ([1]; insulin 0.3 mg/kg, delivery agent 200 mg/kg, time period 45 minutes): −34.0%
Average Glucose Reduction (5 rats/experiment) [1, 2]: −31.4%
Average Glucose Reduction (5 rats/experiment) [1, 3]: −60.6%

SMILES: CC(=O)c1cccc(OCCCCCC(=O)O)c1 [Compound 2, 6-(3-Acetylphenoxy)hexanoic acid]
Average Glucose Reduction (5 rats/experiment) ([1]; insulin 0.5 mg/kg, delivery agent 25 mg/kg, time period 45 minutes): −25.8%
Average Glucose Reduction (5 rats/experiment) ([1]; insulin 0.5 mg/kg, delivery agent 50 mg/kg, time period 45 minutes): −30.2%
Average Glucose Reduction (5 rats/experiment) [1, 3]: −50.8%

melting point: 53 to 54 °C
SMILES: Cc1cccc(OCCCC(=O)O)c1 [Compound 6]
Average Glucose Reduction (5 rats/experiment) ([1]; insulin 0.25 mg/kg, delivery agent 100 mg/kg, time period 45 minutes): −30.9%
Average Glucose Reduction (5 rats/experiment) [1, 3]: −39.3%
Average Glucose Reduction (5 rats/experiment) ([1]; insulin 0.5 mg/kg, delivery agent 200 mg/kg, time period 60 minutes): −14.4%

melting point: 53 to 54 °C
SMILES: O=C(O)CCCOc1cccc(F)c1 [Compound 7, 4-(3-Fluorophenoxy)butyric acid]

melting point: 85 to 87 °C
SMILES: O=C(O)CCCOc1ccccc1Cl [Compound 8, 4-(2-Chlorophenoxy)butanoic acid]

SMILES: CC(C)(Oc1ccc(Cl)cc1)C(=O)NCCCCCC(=O)O [Compound 10, 6-[2-(4-Chlorophenoxy)-2-methylpropionyl]-aminohexanoic acid]
Average Glucose Reduction (5 rats/experiment) [1, 4]: 2.5%

SMILES: Cc1cc(F)ccc1OCCCC(=O)O [Compound 11, 4-(4-Fluoro-2-methyl-phenoxy)-butyric aid]
Average Glucose Reduction (5 rats/experiment) [1, 4]: −63.7%
Average Glucose Reduction (5 rats/experiment) ([1]; insulin 0.5 mg/kg, delivery agent 200 mg/kg, time period 45 minutes): −78.0%

SMILES: Cc1ccc(F)c(OCCCC(=O)O)c1 [Compound 12, 4-(2-Fluoro-5-methyl-phenoxy)-butyric acid]
Average Glucose Reduction (5 rats/experiment) ([1]; insulin 0.25 mg/kg, delivery agent 100 mg/kg, time period 30 minutes): −41.0%
Average Glucose Reduction (5 rats/experiment) ([1]; insulin 0.5 mg/kg, delivery agent 25 mg/kg, time period 60 minutes): −13.1%
Average Glucose Reduction (5 rats/experiment) ([1]; insulin 0.5 mg/kg, delivery agent 50 mg/kg, time period 60 minutes): −25.7%
Average Glucose Reduction (5 rats/experiment) [1, 2]: −47.9%

Source: patent USRE48164E1, “Compounds and compositions for delivering active agents” (EMISPHERE TECHNOLOGIES INC., priority 2007, dated 2020)
